“And” between values parts separate entries of the source, which are not always exact repeats. Equal entries are not always repeated. Toxic doses and inconclusive results are not listed. Rule as the data show it: active = T/C of 150% or more; inactive = T/C below 125%.
System: L1210 leukemia ip in BDF1 mice, survival T/C
Assay: NCI In Vivo Anticancer Drug Screen. Data for tumor model L1210 Leukemia (intraperitoneal) in B6D2F1 (BDF1) mice
Conditions: endpoint: mean survival time, higher = longer survival
Method in brief: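 Transplantable tumor model; survival measured in treated vs vehicle control mice. Value = treated/control.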

[1] = dose: 100.0 mg/kg/injection, schedule: Q04DX003 (ip), vehicle: Klucel (hydroxypropylcellulose) (HPC)
[2] = dose: 200.0 mg/kg/injection, schedule: Q04DX003 (ip), vehicle: Klucel (hydroxypropylcellulose) (HPC)
[3] = dose: 400.0 mg/kg/injection, schedule: Q04DX003 (ip), vehicle: Klucel (hydroxypropylcellulose) (HPC)
[4] = dose: 50.0 mg/kg/injection, schedule: Q01DX009 (ip), vehicle: saline with Tween-80
[5] = dose: 100.0 mg/kg/injection, schedule: Q01DX009 (ip), vehicle: saline with Tween-80
[6] = dose: 200.0 mg/kg/injection, schedule: Q01DX009 (ip), vehicle: saline with Tween-80
[7] = dose: 100.0 mg/kg/injection, schedule: Q01DX001 (ip), vehicle: carboxymethylcellulose (CMC)
[8] = dose: 200.0 mg/kg/injection, schedule: Q01DX001 (ip), vehicle: carboxymethylcellulose (CMC)
[9] = dose: 400.0 mg/kg/injection, schedule: Q01DX001 (ip), vehicle: carboxymethylcellulose (CMC)

Measured: T/C

Cc1cc2oc(/C=C/C(=O)c3ccc([N+](=O)[O-])cc3)c(C)c2cc1C
inactive: [1] 97 % of control | [2] 90 % of control | [3] 100 % of control

CCCCCCCCC(Br)C(Br)CCCCCCCC(=O)O (stereo not given)
inactive: dose: 25.0 mg/kg/injection, schedule: Q04DX002 (ip), vehicle: saline with Tween-80 93 % of control | dose: 50.0 mg/kg/injection, schedule: Q04DX002 (ip), vehicle: saline with Tween-80 96 % of control

C[N+](C)=Cc1c[nH]c2ccccc12
inactive: dose: 9.38 mg/kg/injection, schedule: Q01DX001 (ip), vehicle: steriod suspending solution 98 % of control | dose: 18.75 mg/kg/injection, schedule: Q01DX001 (ip), vehicle: steriod suspending solution 94 % of control | dose: 37.5 mg/kg/injection, schedule: Q01DX001 (ip), vehicle: steriod suspending solution 98 % of control

COc1ccc2c(c1)C(=O)CCC2(C)C
inactive: [4] 100 % of control | [5] 86 % of control | [6] 105 % of control

[N-]=[N+]=Nc1cnn(-c2ccccc2)c(=O)c1Cl
inactive: dose: 18.75 mg/kg/injection, schedule: Q01DX009 (ip), vehicle: saline with Tween-80 105 % of control | dose: 37.5 mg/kg/injection, schedule: Q01DX009 (ip), vehicle: saline with Tween-80 92 % of control | dose: 75.0 mg/kg/injection, schedule: Q01DX009 (ip), vehicle: saline with Tween-80 101 % of control

CCCCOC(OCCCC)c1ccccc1
inactive: dose: 50.0 mg/kg/injection, schedule: Q01DX001 (ip), vehicle: carboxymethylcellulose (CMC) 95 % of control | [7] 88 % of control

O=[N+]([O-])c1cc2c(cc1Br)-c1ccccc1/C2=N\O
inactive: [7] 103 % of control | [8] 101 % of control | [9] 97 % of control

Cc1cc(N)c(C)c(C)c1O
inactive: dose: 12.5 mg/kg/injection, schedule: Q04DX003 (ip), vehicle: saline with Tween-80 94 % of control | dose: 25.0 mg/kg/injection, schedule: Q04DX003 (ip), vehicle: saline with Tween-80 94 % of control | dose: 50.0 mg/kg/injection, schedule: Q04DX003 (ip), vehicle: saline with Tween-80 94 % of control | dose: 100.0 mg/kg/injection, schedule: Q04DX003 (ip), vehicle: saline with Tween-80 101 % of control

O=C(O)C(=O)c1ccccc1NC(=O)c1ccc(Cl)cc1
inactive: dose: 50.0 mg/kg/injection, schedule: Q04DX002 (ip), vehicle: Klucel (hydroxypropylcellulose) (HPC) 101 % of control | dose: 100.0 mg/kg/injection, schedule: Q04DX002 (ip), vehicle: Klucel (hydroxypropylcellulose) (HPC) 93 % of control | dose: 200.0 mg/kg/injection, schedule: Q04DX002 (ip), vehicle: Klucel (hydroxypropylcellulose) (HPC) 93 % of control

CCCCCCCC(C(=O)O)C(CCCCCCC)C(=O)O (stereo not given)
inactive: dose: 6.0 mg/kg/injection, schedule: Q01DX009 (ip), vehicle: saline 89 % of control | dose: 12.0 mg/kg/injection, schedule: Q01DX009 (ip), vehicle: saline 96 % of control | dose: 12.0 mg/kg/injection, schedule: Q04DX003 (ip), vehicle: saline 98 % of control | dose: 25.0 mg/kg/injection, schedule: Q04DX003 (ip), vehicle: saline 104 % of control

COC(=O)CC(C)C(C)(C)[N+](=O)[O-] (stereo not given)
inactive: [4] 92 % of control | [5] 92 % of control | [6] 92 % of control

Cc1ccc2c(ccc(/C=C/c3ccnc4c(O)cccc34)[n+]2C)c1
inactive: dose: 25.0 mg/kg/injection, schedule: Q01DX001 (ip), vehicle: saline 99 % of control | dose: 35.0 mg/kg/injection, schedule: Q01DX001 (ip), vehicle: saline 111 % of control | dose: 55.0 mg/kg/injection, schedule: Q01DX001 (ip), vehicle: saline 119 % of control | dose: 85.0 mg/kg/injection, schedule: Q01DX001 (ip), vehicle: saline 123 % of control | dose: 132.0 mg/kg/injection, schedule: Q01DX001 (ip), vehicle: saline 115 % of control and 121 % of control | dose: 198.0 mg/kg/injection, schedule: Q01DX001 (ip), vehicle: saline 117 % of control

O=C1CCC/C1=C/c1ccccc1
inactive: [7] 97 % of control | [1] 93 % of control | [8] 91 % of control | [2] 95 % of control | [9] 91 % of control | [3] 88 % of control

CC12CCC(C/C1=N\N=C(N)N)C2(C)C (stereo not given)
inactive: dose: 9.37 mg/kg/injection, schedule: Q01DX009 (ip), vehicle: saline 97 % of control | dose: 18.75 mg/kg/injection, schedule: Q01DX009 (ip), vehicle: saline 96 % of control | dose: 18.75 mg/kg/injection, schedule: Q04DX003 (ip), vehicle: saline 102 % of control | dose: 37.5 mg/kg/injection, schedule: Q01DX009 (ip), vehicle: saline 102 % of control | dose: 37.5 mg/kg/injection, schedule: Q04DX003 (ip), vehicle: saline 94 % of control | dose: 75.0 mg/kg/injection, schedule: Q01DX001 (ip), vehicle: saline 105 % of control | dose: 75.0 mg/kg/injection, schedule: Q04DX003 (ip), vehicle: saline 88 % of control

Nc1ncnc2nc(-c3cccc(OCCCOc4ccccc4)c3)[nH]c12
inactive: dose: 75.0 mg/kg/injection, schedule: Q01DX001 (ip), vehicle: gum acacia 95 % of control | dose: 150.0 mg/kg/injection, schedule: Q01DX001 (ip), vehicle: gum acacia 93 % of control | dose: 300.0 mg/kg/injection, schedule: Q01DX001 (ip), vehicle: gum acacia 91 % of control

O=[N+]([O-])c1cc(Cl)cc2c1nc(NCCCO)c1ccccc12
inactive: [1] 105 % of control | [2] 108 % of control | [3] 102 % of control

CC(C)c1nc2c(c(=O)n(C)c(=O)n2C)n1C
inactive: dose: 50.0 mg/kg/injection, schedule: Q01DX001 (ip), vehicle: saline 102 % of control | dose: 100.0 mg/kg/injection, schedule: Q01DX001 (ip), vehicle: saline 96 % of control | dose: 200.0 mg/kg/injection, schedule: Q01DX001 (ip), vehicle: saline 96 % of control | dose: 400.0 mg/kg/injection, schedule: Q01DX001 (ip), vehicle: saline 108 % of control

Clc1ccc(-c2cc(=[N+]3CCC4(CC3)SSC3(CC[N+](=c5cc(-c6ccc(Cl)cc6)ss5)CC3)S4)ss2)cc1 (stereo not given)
inactive: dose: 25.0 mg/kg/injection, schedule: Q01DX009 (ip), vehicle: water 90 % of control | dose: 50.0 mg/kg/injection, schedule: Q01DX009 (ip), vehicle: water 90 % of control | dose: 100.0 mg/kg/injection, schedule: Q01DX009 (ip), vehicle: water 88 % of control | dose: 400.0 mg/kg/injection, schedule: Q01DX009 (ip), vehicle: water 87 % of control

CN(C=O)c1ccc(C(=O)O)cc1
inactive: [7] 123 % of control | [8] 96 % of control | [9] 94 % of control

COCCNP(=O)(OC)OC
inactive: dose: 50.0 mg/kg/injection, schedule: Q01DX009 (ip), vehicle: acetone 100 % of control | dose: 50.0 mg/kg/injection, schedule: Q04DX003 (ip), vehicle: acetone 96 % of control | dose: 100.0 mg/kg/injection, schedule: Q01DX001 (ip), vehicle: acetone 110 % of control | dose: 100.0 mg/kg/injection, schedule: Q01DX009 (ip), vehicle: acetone 108 % of control | dose: 100.0 mg/kg/injection, schedule: Q04DX003 (ip), vehicle: acetone 101 % of control | dose: 200.0 mg/kg/injection, schedule: Q01DX001 (ip), vehicle: acetone 102 % of control | dose: 200.0 mg/kg/injection, schedule: Q01DX009 (ip), vehicle: acetone 97 % of control | dose: 200.0 mg/kg/injection, schedule: Q04DX003 (ip), vehicle: acetone 111 % of control

CCCCc1ccc(-n2c(C)c(COC(=O)NC)c(COC(=O)NC)c2C)cc1
inactive: dose: 3.12 mg/kg/injection, schedule: Q01DX009 (ip), vehicle: Klucel (hydroxypropylcellulose) (HPC) 122 % of control | dose: 6.25 mg/kg/injection, schedule: Q01DX009 (ip), vehicle: Klucel (hydroxypropylcellulose) (HPC) 122 % of control

O=C(O)CCN1C(=O)CCC1=O
inactive: dose: 100.0 mg/kg/injection, schedule: Q01DX009 (ip), vehicle: saline 91 % of control | dose: 100.0 mg/kg/injection, schedule: Q04DX003 (ip), vehicle: saline sonified 105 % of control | dose: 200.0 mg/kg/injection, schedule: Q01DX009 (ip), vehicle: saline 94 % of control | dose: 200.0 mg/kg/injection, schedule: Q04DX003 (ip), vehicle: saline sonified 92 % of control | dose: 400.0 mg/kg/injection, schedule: Q01DX009 (ip), vehicle: saline 105 % of control | dose: 400.0 mg/kg/injection, schedule: Q04DX003 (ip), vehicle: saline sonified 95 % of control

Reference: PubChem BioAssay AID248 (DTP/NCI, 2004)
